Legend:
L-lactate dehydrogenase = L-lactate dehydrogenase (Plasmodium falciparum (isolate CDC / Honduras), UniProt Q27743); assay: Lactate Dehydrogenase Inhibition Assay; conditions: pH 7.5; 25 °C
Source text: (§1) An LDH enzymatic assay developed for high throughput format was used. The dehydrogenase reaction was run in the lactate to pyruvate direction and coupled with the ability of diaphorase to reduce p-iodonitrotetrazolium violet using the NADH generated in the conversion of lactate to pyruvate. The progression of the coupling reaction was monitored as the increase of absorbance at 492 nm. Positive hits were subjected to additional analysis to determine IC50 values.

[1] = molecular target: L-lactate dehydrogenase B chain (Homo sapiens, UniProt P07195); assay: Lactate Dehydrogenase Inhibition Assay
Source text: as §1

Sequence of L-lactate dehydrogenase (Q27743 whole entry): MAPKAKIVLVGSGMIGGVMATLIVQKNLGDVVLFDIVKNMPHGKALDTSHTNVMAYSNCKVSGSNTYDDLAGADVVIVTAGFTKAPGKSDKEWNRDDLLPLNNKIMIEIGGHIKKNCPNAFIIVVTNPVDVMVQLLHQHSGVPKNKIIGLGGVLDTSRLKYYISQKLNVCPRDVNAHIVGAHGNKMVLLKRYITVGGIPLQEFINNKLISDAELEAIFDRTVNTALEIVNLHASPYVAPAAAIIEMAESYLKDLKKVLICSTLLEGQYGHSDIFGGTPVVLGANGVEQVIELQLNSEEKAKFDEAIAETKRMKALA
Sequence of L-lactate dehydrogenase B chain (P07195 whole entry): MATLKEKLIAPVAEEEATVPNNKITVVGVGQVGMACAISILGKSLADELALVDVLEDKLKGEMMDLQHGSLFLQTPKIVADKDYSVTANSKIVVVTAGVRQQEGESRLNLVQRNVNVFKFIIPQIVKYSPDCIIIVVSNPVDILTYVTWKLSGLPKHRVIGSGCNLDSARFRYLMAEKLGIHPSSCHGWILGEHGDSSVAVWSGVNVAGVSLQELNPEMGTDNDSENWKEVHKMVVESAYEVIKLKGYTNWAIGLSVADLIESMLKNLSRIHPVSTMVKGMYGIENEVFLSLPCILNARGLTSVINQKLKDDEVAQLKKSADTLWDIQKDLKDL

| Structure (SMILES) | IC50 (L-lactate dehydrogenase) [µM] | IC50 [1] [µM] | Ki (L-lactate dehydrogenase) [µM] |
| --- | --- | --- | --- |
| O=C(O)c1cnon1 [1,2,5-oxadiazole-3-carboxylic acid] | > 200 | > 200 | – |
| O=C(O)Cc1no[nH]c1=O [2-(4-hydroxy-1,2,5-oxadiazol-3-yl)acetic acid] | > 200 | > 200 | – |
| O=C(O)c1nonc1NCCO [4-[(2-hydroxyethyl)amino]-1,2,5-oxadiazole-3-carboxylic acid] | > 200 | > 200 | – |
| Nc1nonc1C(=O)O [4-amino-1,2,5-oxadiazole-3-carboxylic acid] | > 200 | > 200 | – |
| COc1nsnc1C(=O)O [4-methoxy-1,2,5-thiadiazole-3-carboxylic acid] | > 100 | > 100 | – |
| O=C(O)c1nonc1OC/C=C/c1ccccc1 [4-{[(2E)-3-phenylprop-2-en-1-yl]oxy}-1,2,5-oxadiazole-3-carboxylic acid] | > 200 | > 200 | – |
| Cn1nc(O)c(C(=O)O)n1 [5-hydroxy-2-methyl-2H-1,2,3-triazole-4-carboxylic acid] | > 100 | > 100 | – |
| O=C(OCc1ccc(Cl)c(Cl)c1)c1no[nH]c1=O [(3,4-dichlorophenyl)methyl 4-hydroxy-1,2,5-oxadiazole-3-carboxylate] | > 200 | > 200 | – |
| CCOC(=O)c1co[nH]c1=O [ethyl 3-hydroxy-1,2-oxazole-4-carboxylate] | > 100 | > 100 | – |
| CCOC(=O)c1nonc1OCc1ccc(OC)cc1 [ethyl 4-[(4-methoxyphenyl)methoxy]-1,2,5-oxadiazole-3-carboxylate] | > 200 | > 200 | – |
| CCOC(=O)c1nonc1O [ethyl 4-hydroxy-1,2,5-oxadiazole-3-carboxylate] | > 100 | > 100 | – |
| CCOC(=O)c1c[nH]oc1=O [ethyl 5-hydroxy-1,2-oxazole-4-carboxylate] | > 100 | > 100 | – |
| COC(=O)c1c(C)[nH]oc1=O [methyl 5-hydroxy-3-methyl-1,2-oxazole-4-carboxylate] | > 100 | > 100 | – |

Results, then the compound that gave them:

| IC50 (L-lactate dehydrogenase) [µM] | IC50 [1] [µM] | Ki (L-lactate dehydrogenase) [µM] | Structure (SMILES) |
| --- | --- | --- | --- |
| > 100 | > 100 | – | O=C(O)c1c(O)nnn1Cc1ccccc1 [1-benzyl-4-hydroxy-1H-1,2,3-triazole-5-carboxylic acid] |
| 98 | > 200 | – | O=C(O)c1cnn[nH]1 [1H-1,2,3-triazole-5-carboxylic acid] |
| > 100 | > 100 | – | O=C(O)c1nn(Cc2ccccc2)[nH]c1=O [2-benzyl-5-hydroxy-2H-1,2,3-triazole-4-carboxylic acid] |
| > 100 | > 100 | – | Cn1occ(C(=O)O)c1=O [2-methyl-3-oxo-2,3-dihydro-1,2-oxazole-4-carboxylic acid] |
| 1.1 | 54 | 0.47 | O=C(O)c1conc1O [3-hydroxy-1,2-oxazole-4-carboxylic acid] |
| > 100 | > 100 | – | Cc1o[nH]c(=O)c1C(=O)O [3-hydroxy-5-methyl-1,2-oxazole-4-carboxylic acid] |
| > 100 | > 100 | – | COc1nocc1C(=O)O [3-methoxy-1,2-oxazole-4-carboxylic acid] |
| > 100 | > 100 | – | Nc1nsnc1C(=O)O [4-amino-1,2,5-thiadiazole-3-carboxylic acid] |
| 0.65 | 72.1 | 0.21 | O=C(O)c1nonc1O [4-hydroxy-1,2,5-oxadiazole-3-carboxylic acid] |
| 0.14 | 10.3 | 0.29 | O=C(O)c1nsnc1O [4-hydroxy-1,2,5-thiadiazole-3-carboxylic acid] |
| 81 | > 100 | – | O=C(O)c1noc(C(=O)O)c1O [4-hydroxy-1,2-oxazole-3,5-dicarboxylic acid] |
| 16 | > 100 | – | O=C(O)c1nocc1O [4-hydroxy-1,2-oxazole-3-carboxylic acid] |
| > 100 | > 100 | – | Cn1nnc(O)c1C(=O)O [4-hydroxy-1-methyl-1H-1,2,3-triazole-5-carboxylic acid] |

From BindingDB's records for doi:10.1074/jbc.M402433200 (University of Bristol, 2004)
